Laboratory results as given in patent US8142759B2, “Glyco-molecular imaging method for grade classification of liver fibrosis and its glyco-molecular imaging agent thereof” (Institute of Nuclear Energy Research, priority 2007, dated 2012).

Experiment: Storage stability at room temperature
Format: physicochemical

| storage time at room temperature (air/water stability) | storage stability at room temperature (water dissolution) | Structure (SMILES) |
| --- | --- | --- |
| one |  | O=C(CN(CCSC(c1ccccc1)(c1ccccc1)c1ccccc1)CC(=O)ON1C(=O)CCC1=O)NCCSC(c1ccccc1)(c1ccccc1)c1ccccc1 [SOCTA, succinimidyl-3,6-diaza-5-oxo-3-[2-((triphenyl-methyl)thio)ethyl]-8-[(triphenylmethyl)-thio]octanoate] |
|  | much unstable | O=C(O)CN(CCN1CC(=O)OC(=O)C1)CCN1CC(=O)OC(=O)C1 [DTPA anhydride] |
